Experimental findings from PubChem BioAssay (NCI) are described below.

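Each compound was tested at five concentrations against cells in 96-well plates for 48 hours. GI50: concentration for 50% inhibition of growth.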

This test concerns SN12K1 renal. In words: DTP human tumour cell line panel, 48 h.

For orientation: GI50 means the concentration that inhibits growth by half. Take `Cc1c[nH]c2c1C13CC1CN(C(=O)c1cc4cc(NC(=O)c5cc6ccccc6o5)ccc4[nH]1)C3=CC2=O` (stereo unspecified): the GI50 is more than 1.17 ng/mL.
